Results: publication PMC2784364, “VX-166: a novel potent small molecule caspase inhibitor as a potential therapy for sepsis” (Critical Care, 2009)
Like-named read-outs stand apart in the source and are kept apart here.

Tests used:
caspase-8 = biological target: T1, caspase-8 (Homo sapiens, UniProt Q14790); assay: Caspase inhibition assay, second-order inactivation rate; type: biochemical; conditions: recombinant caspase-8, 37°C, n = 4; read-out: Second order inactivation rate constant K
T1 construct: Active recombinant caspase-1, -3, -4, -7 and -8 were prepared as described previously; made in house
T1 sequence (Q14790 217-374 limits assumed): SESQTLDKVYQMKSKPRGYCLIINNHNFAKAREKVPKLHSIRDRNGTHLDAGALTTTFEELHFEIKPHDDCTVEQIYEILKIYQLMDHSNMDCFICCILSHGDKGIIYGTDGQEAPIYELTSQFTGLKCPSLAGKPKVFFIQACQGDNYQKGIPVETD
T1 sequence (Q14790 385-479 limits assumed): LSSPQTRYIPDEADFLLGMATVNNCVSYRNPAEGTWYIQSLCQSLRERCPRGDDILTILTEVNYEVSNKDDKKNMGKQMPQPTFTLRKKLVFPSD
Experimental: (§1) Active recombinant caspase-1, -3, -4, -7 and -8 were prepared as described previously. Caspase-2 was purchased from Biomol (Exeter, UK), caspase-6 from BD Biosciences (Oxford, UK), caspase-9 from Europa Bioproducts Ltd. (Cambridge, UK) and caspase-10 from Chemicon International Inc. (Harrow, UK). Cathepsin B and granzyme B were purchased from Merck Biosciences Ltd. (Nottingham, UK). Fluorogenic protease substrates were purchased from Bachem Ltd. (St. Helens, UK). All reactions were carried out at 37°C using a Molecular Devices (Wokingham, UK) Gemini plate-reader at 460 nm (excitation wavelength of 390 nm). Caspase inhibition assays were conducted, with minor modifications, as described by Margolin and colleagues. Irreversible kinetics were analysed by calculations of second-order inactivation rate constants (k) using GraphPad (La Jolla, CA, USA) Prism 4.0 software. A larger number for an inactivation rate constant indicates a greater degree of inactivation. To determine the inhibitory effect on cathepsin B, 4.25 nM of the enzyme were added to 250 μM z-RR-AMC in 10 mM 2-morpholino-ethanesulfonic acid pH 6.0, 1 mM DTT, 1 mM EDTA and 0.03% Brij35 in the presence or absence of VX-166 and the reaction monitored continuously over 15 minutes. Granzyme B was assayed, with minor modifications, as described by Thornberry and colleagues. Additional counterscreening against a panel of 83 additional enzymes, ion channels and receptors was carried out at MDS Pharma Services (Bothell, WA, USA).

caspase-9 = biological target: T2, caspase-9 (Homo sapiens, UniProt P55211); assay: as above; type: biochemical; conditions: recombinant caspase-9, 37°C, n = 4; read-out: Second order inactivation rate constant K
T2 construct: purchased Europa Bioproducts Ltd. (Cambridge, UK)
T2 sequence (P55211 whole entry): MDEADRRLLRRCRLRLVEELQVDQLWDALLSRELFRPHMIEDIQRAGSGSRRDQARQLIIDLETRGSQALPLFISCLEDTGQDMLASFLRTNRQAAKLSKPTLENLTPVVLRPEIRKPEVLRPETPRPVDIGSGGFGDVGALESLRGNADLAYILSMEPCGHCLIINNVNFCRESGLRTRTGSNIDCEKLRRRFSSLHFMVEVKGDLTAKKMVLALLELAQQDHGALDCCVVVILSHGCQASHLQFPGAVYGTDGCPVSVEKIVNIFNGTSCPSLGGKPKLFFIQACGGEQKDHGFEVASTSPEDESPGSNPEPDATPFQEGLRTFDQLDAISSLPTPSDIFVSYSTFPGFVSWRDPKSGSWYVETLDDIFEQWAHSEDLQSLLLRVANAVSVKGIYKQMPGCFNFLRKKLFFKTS
Experimental: as §1

caspase-7 = biological target: T3, caspase-7 (Homo sapiens, UniProt P55210); assay: as above; type: biochemical; conditions: recombinant caspase-7, 37°C, n = 4; read-out: Second order inactivation rate constant K
T3 construct: Active recombinant caspase-1, -3, -4, -7 and -8 were prepared as described previously; made in house
T3 sequence (P55210 24-198 limits assumed): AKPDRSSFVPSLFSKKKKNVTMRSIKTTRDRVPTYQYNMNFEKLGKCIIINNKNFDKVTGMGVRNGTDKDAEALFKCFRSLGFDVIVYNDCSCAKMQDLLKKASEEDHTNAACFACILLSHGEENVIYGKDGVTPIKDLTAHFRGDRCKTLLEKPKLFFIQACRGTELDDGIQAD
T3 sequence (P55210 207-303 limits assumed): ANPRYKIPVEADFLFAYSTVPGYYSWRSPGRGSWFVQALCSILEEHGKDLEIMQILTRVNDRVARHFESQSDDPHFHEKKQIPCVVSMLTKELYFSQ
Experimental: as §1

caspase-10 = biological target: T4, caspase-10 (Homo sapiens, UniProt Q92851); assay: as above; type: biochemical; conditions: recombinant caspase-10, 37°C, n = 4; read-out: Second order inactivation rate constant K
T4 construct: purchased Chemicon International Inc. (Harrow, UK)
T4 sequence (Q92851 220-521): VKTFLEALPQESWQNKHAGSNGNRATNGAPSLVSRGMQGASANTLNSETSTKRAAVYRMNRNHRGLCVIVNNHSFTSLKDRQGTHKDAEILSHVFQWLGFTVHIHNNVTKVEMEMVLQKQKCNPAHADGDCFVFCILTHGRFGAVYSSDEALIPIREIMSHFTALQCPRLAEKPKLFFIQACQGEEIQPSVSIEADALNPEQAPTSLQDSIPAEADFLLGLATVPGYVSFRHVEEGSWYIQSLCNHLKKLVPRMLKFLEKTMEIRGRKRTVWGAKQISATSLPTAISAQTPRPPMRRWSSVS
Experimental: as §1

caspase-6 = biological target: T5, caspase-6 (Homo sapiens, UniProt P55212); assay: as above; type: biochemical; conditions: recombinant caspase-6, 37°C, n = 4; read-out: Second order inactivation rate constant K
T5 construct: purchased BD Biosciences (Oxford, UK)
T5 sequence (P55212 24-293): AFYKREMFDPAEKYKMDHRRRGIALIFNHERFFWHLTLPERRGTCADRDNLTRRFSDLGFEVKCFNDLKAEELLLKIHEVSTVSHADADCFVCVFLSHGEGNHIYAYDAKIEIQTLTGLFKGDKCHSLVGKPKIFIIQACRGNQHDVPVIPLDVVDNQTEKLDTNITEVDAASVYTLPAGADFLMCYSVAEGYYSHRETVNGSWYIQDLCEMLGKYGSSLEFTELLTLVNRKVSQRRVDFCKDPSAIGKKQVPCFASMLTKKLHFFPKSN
Experimental: as §1

caspase-4 = biological target: T6, caspase-4 (Homo sapiens, UniProt P49662); assay: as above; type: biochemical; conditions: recombinant caspase-4, 37°C, n = 4; read-out: Second order inactivation rate constant K
T6 construct: Active recombinant caspase-1, -3, -4, -7 and -8 were prepared as described previously; made in house
T6 sequence (P49662 81-270 limits assumed): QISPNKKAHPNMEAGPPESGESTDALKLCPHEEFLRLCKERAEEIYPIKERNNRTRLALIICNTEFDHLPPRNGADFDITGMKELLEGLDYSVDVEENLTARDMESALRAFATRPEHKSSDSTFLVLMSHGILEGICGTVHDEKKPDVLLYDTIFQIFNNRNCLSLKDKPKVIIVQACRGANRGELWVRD
T6 sequence (P49662 290-377 limits assumed): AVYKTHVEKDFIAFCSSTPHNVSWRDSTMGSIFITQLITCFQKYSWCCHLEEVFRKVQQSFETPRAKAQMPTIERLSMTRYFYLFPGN
Experimental: as §1

caspase-3 = biological target: T7, caspase-3 (Homo sapiens, UniProt P42574); assay: as above; type: biochemical
T7 construct: Active recombinant caspase-1, -3, -4, -7 and -8 were prepared as described previously; made in house
T7 sequence (P42574 29-175 limits assumed): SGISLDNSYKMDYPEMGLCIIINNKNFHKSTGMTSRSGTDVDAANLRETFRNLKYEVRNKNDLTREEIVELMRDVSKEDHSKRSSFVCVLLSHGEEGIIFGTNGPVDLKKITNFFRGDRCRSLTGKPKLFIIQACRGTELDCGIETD
T7 sequence (P42574 176-277 limits assumed): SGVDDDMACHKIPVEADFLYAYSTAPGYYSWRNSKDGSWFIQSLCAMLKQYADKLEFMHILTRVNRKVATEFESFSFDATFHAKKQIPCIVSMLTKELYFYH
Experimental: as §1

caspase-1 = biological target: T8, caspase-1 (Homo sapiens, UniProt P29466); assay: as above; type: biochemical; conditions: caspase-1, text; read-out: second order inactivation rate constant (k)
T8 construct: Active recombinant caspase-1, -3, -4, -7 and -8 were prepared as described previously; made in house
T8 sequence (P29466 120-297 limits assumed): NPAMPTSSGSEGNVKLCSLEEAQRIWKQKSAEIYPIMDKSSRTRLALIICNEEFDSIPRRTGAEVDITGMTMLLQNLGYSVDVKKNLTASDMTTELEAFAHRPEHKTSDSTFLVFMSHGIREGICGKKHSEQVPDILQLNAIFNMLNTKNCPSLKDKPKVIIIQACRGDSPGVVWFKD
T8 sequence (P29466 317-404 limits assumed): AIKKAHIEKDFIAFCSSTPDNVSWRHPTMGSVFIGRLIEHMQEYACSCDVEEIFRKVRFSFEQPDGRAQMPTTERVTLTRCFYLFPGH
Experimental: as §1

Sprague-Dawley rats = assay: CLP rat, thymus weight; type: in vivo; conditions: 25 mg/ml pump, P < 0.01
Experimental: CLP studies were performed in accordance with the National Institutes of Health guidelines for the use of experimental animals and were approved by the Institutional Animal Care and Use Committee of the Feinstein Institute for Medical Research. Adult male Sprague-Dawley rats (weighing 275 to 325 g, Charles River Laboratories, Wilmington, MA, USA) were fasted overnight then anaesthetised with isoflurane. The caecum was exposed via a 2 cm midline incision. It was ligated just distal to the ileocaecal valve, then punctured twice with an 18-gauge needle and gently squeezed to release a small amount of faecal material to ensure patency of the perforation sites before the abdominal incision was closed. Sham-operated rats underwent the same procedure with the exception that the caecum was neither ligated nor punctured. Animals received subcutaneous fluids (30 ml/kg saline) immediately after the procedure. No antibiotics were administered. In the 7 and 10 day survival studies animals were re-anaesthetised 20 hours after CLP, the perforated caecum was removed and the abdominal cavity washed twice with 40 ml of warm, sterilised saline. The abdominal cavity was closed, anaesthetics withdrawn and rats returned to their cages where they were allowed free access to food and water. In the 20 hour endpoint study the caecum was not removed. […]

CCC(C(=O)NC(CC(=O)O)C(=O)COc1c(F)c(F)cc(F)c1F)n1cccc(NC(=O)OC)c1=O (stereo not shown) [VX-166]
kinact/KI (caspase-8): 194000 ± 52000 M⁻¹ s⁻¹
kinact/KI (caspase-9): 131000 ± 21000 M⁻¹ s⁻¹
kinact/KI (caspase-7): 526000 ± 1500 M⁻¹ s⁻¹
kinact/KI (caspase-10): 49000 ± 3800 M⁻¹ s⁻¹
kinact/KI (caspase-6): 77000 ± 3000 M⁻¹ s⁻¹
kinact/KI (caspase-4): 480000 ± 32000 M⁻¹ s⁻¹
kinact/KI (caspase-3; caspase-3, text, read-out: second order inactivation rate constant (k)): > 1e+06 M⁻¹ s⁻¹
kinact/KI (caspase-3; read-out: Second order inactivation rate constant K): 1.17e+06 ± 183000 M⁻¹ s⁻¹
kinact/KI (caspase-1): > 1e+06 M⁻¹ s⁻¹
thymus weight of surviving rats on day 10 vs control (Sprague-Dawley rats): significantly higher weight
